The values below come from the supplement of paper PMC10307832.

Holding throughout (test): relative viability (nuclei count vs DMSO), 5 days (fraction); higher = more cells survive
Compound in the experiment “Trametinib + Pictilisib”: CC(=O)Nc1cccc(-n2c(=O)n(C3CC3)c(=O)c3c(Nc4ccc(I)cc4F)n(C)c(=O)c(C)c32)c1 [Trametinib] + CS(=O)(=O)N1CCN(Cc2cc3nc(-c4cccc5[nH]ncc45)nc(N4CCOCC4)c3s2)CC1 [Pictilisib] (partner 1 µM)
An outline of the steps: (§1)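 For relative viability, nuclei counts in treated wells were divided by those in vehicle wells. Lung cancer cell lines had been pin-tool dosed in 1536-well plates the day after seeding and cultured for 5 days, then fixed and stained in one step (final 0.05% Triton X-100, 1% formaldehyde, 1 ug/ml Hoechst) and imaged at 4×. Doses were one drug alone or a fixed anchor-drug dose plus five library-drug doses (not always all listed) in √10 steps, and values are duplicate-plate medians.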

Compound in experiment [1]: CN1C=C(C2=CC=CC=C21)/C=C\3/C4=C(C=CC=N4)NC3=O + Cc1nc(NC(=O)N2CCC[C@H]2C(N)=O)sc1-c1ccnc(C(C)(C)C(F)(F)F)c1 [Alpelisib] (partner 2 µM)
An outline of the steps: as §1

Compound in experiment [2]: CN1C=C(C2=CC=CC=C21)/C=C\3/C4=C(C=CC=N4)NC3=O + Cc1nc(Nc2ncc(C(=O)Nc3c(C)cccc3Cl)s2)cc(N2CCN(CCO)CC2)n1 [Dasatinib] (partner 0.075 µM)
An outline of the steps: as §1

Compound in experiment [3]: CN1C=C(C2=CC=CC=C21)/C=C\3/C4=C(C=CC=N4)NC3=O + Cc1cc(Nc2cc(N3CCN(C)CC3)nc(Sc3ccc(NC(=O)C4CC4)cc3)n2)n[nH]1 [Tozasertib] (partner 0.1 µM)
An outline of the steps:
as §1

As to UMC-11, the relative viability with Trametinib + Pictilisib (first compound 0.0025 µM) is 0.662; with Trametinib + Pictilisib (first compound 0.007906 µM), 0.785; with Trametinib + Pictilisib (first compound 0.025 µM), 0.297; with Trametinib + Pictilisib (first compound 0.07906 µM), 0.709; in the experiment with Trametinib + Pictilisib (first compound 0.25 µM), 0.663; in experiment [1] (first compound 0.02 µM), 0.725. In addition, the relative viability in experiment [1] (first compound 0.06325 µM) was found to be 1.02; in experiment [1] (first compound 0.2 µM) it was 1.01; in experiment [1] (first compound 0.6325 µM), 1.05; in experiment [1] (first compound 2 µM), 1.12; in experiment [2] (first compound 0.02 µM) it was 0.556; in experiment [2] (first compound 0.06325 µM), 0.449. The relative viability in experiment [2] (first compound 0.2 µM) was found to be 0.367; in experiment [2] (first compound 0.6325 µM), 0.41; in experiment [2] (first compound 2 µM), 0.632; in experiment [3] (first compound 0.02 µM), 0.206; in experiment [3] (first compound 0.06325 µM), 0.198; in experiment [3] (first compound 0.2 µM), 0.177. For the same cell line, the values for the relative viability in experiment [3] (first compound 0.6325 µM) and in experiment [3] (first compound 2 µM) were 0.191 and 0.227, respectively.
